The results in this text go back to patent US20140221324A1, “COMPOSITION FOR THE REDUCTION OF DRIP LOSSES IN PORK” (DSM IP ASSETS B.V., priority 2008, published 2014).

Holding throughout (assay type): in vivo, pig (Large-White x Landrace)
For test [1], the system named is growing-fattening pig. The experiment in a line: Carcass lean/fat ratio after long-term dietary supplementation of growing-fattening pigs. The settings on record: for carcasses' lean/fat ratio, value in brackets relative to group A (100): index, group A (2000 IU/kg D3) = 100; for carcasses' lean/fat ratio: pigs fed supplemented diet (2000 IU/kg D3 or 50 μg/kg 25-OH D3), mean ± SD of 20 determinations. The protocol: (§1) Fifty 28-d old Large-White x Landrace weaner piglets having an initial body weight of 7.9±0.74 kg were used. The animals were allocated into two equal groups (A and B) and housed in cages in sub-groups (two of 8 and one of 9 animals) in an environmentally controlled room. […] Room temperature was initially 27° C. and was lowered weekly by about 2° C. until 21-22° C. Environment humidity percentage throughout the experiment was 50%. The experiments were performed in the facilities of the Centre de Recherche en Nutrition Animate (CRNA), DSM Nutritional Products France, BP 170, 68305 Saint-Louis cedex, France. They have been performed according to the French legal regulations on experiments with live animals.
(§2) Each group of animals was fed either a basal diet with the addition of 2000 IU/kg of vitamin D3 (group A) or the basal diet, without vitamin D3, and supplemented with 50 μg/kg of 25-hydroxycholecalciferol (Rovimix® Hy•D® commercially available from DSM Nutritional Products) (group B).
(§3) At the end of the post-weaning phase the twenty heaviest animals of each group were used for the growing-fattening period. […] Room temperature was 21-22° C. and humidity percentage was 50%.
(§4) The pigs were fed for 87 days a diet supplemented either with 2000 IU/kg of vitamin D3 (group A, animals ingesting during the post-weaning phase 2000 U/kg) or with 50 μg/kg of 25-hydroxycholecalciferol (group B, animals ingesting during the post-weaning phase 50 μg/kg). The basal diet (Table 2) was formulated to meet the animals' requirements according to Henry et al. 1989 In: L'alimentation des animaux domestiques—pore, lapin, volailles INRA), 2ème édition, INRA, Paris, 49-76 and NRC, 1998. Nutrient requirements of swine, 10th revised edition, National Academic Press. Washington DC, U.S.A.
In the second mid-carcass lean and fat were measured at three different points with a caliper square tool. Muscular depth was measured after dissection of the ilio-spinalis muscle (longissimus dorsi) at the level of the 4th dorsal vertebrae. The sub-cutaneous back fat deposition was measured at the levels of the 4th dorsal and lumbar vertebras. These measures were used to estimate the carcasses' lcan/fat ratio.
(§5) Statistical treatment of the results involved the calculation of the mean and the standard deviation of the mean as well as a two-factor hierarchical analysis of variance at 95% confidence level.

In test [2] the test system is growing-fattening pig. The test is described as follows: Carcass cold yield after long-term dietary supplementation of growing-fattening pigs. The following applies: for carcasses' cold yield, value in brackets relative to group A (100): index, group A (2000 IU/kg D3) = 100; for carcasses' cold yield: pigs fed supplemented diet (2000 IU/kg D3 or 50 μg/kg 25-OH D3), carcass weighed after 24 h at +4° C., mean ± SD of 20 determinations. Here is the method:
as §1, §2, §3, §4
At the end of the experiment, all animals were randomly divided into four different lots and assigned to one slaughter campaign: days 84th, 85th, 86th and 87th. Animals of each lot were fasted for 12 hours and weighed just before they were slaughtered after tranquilization and stunning. The carcasses were sawed longitudinally following the spinal canal and weighed after 24 hours storage at +4° C. to estimate the carcasses' cold yield.
as §5

The subject of test [3] is ilio-spinalis (longissimus dorsi) muscle. The experiment in a line: pH of the ilio-spinalis (longissimus dorsi) muscle at slaughter and after 24 h storage. The settings on record: for pH after 24 h / pH at slaughter: ilio-spinalis muscle, mean ± SD of 20 determinations; for pH after 24 h: after 24 hours storage at +4° C.; for pH at slaughter: measured immediately; for pH after 24 h, value in brackets relative to group A (100) / pH at slaughter, value in brackets relative to group A (100): index. Here is the method:
as §1, §2, §3, §4
(§6) In one of the mid-carcass, the entire ilio-spinalis muscle (longissimus dorsi) was dissected. Each muscle was weighed and pH was measured immediately and after 24 hours storage at +4° C. The muscles were individually conditioned into inflated plastic bags for water recovery during storage. Percentage of drip loses from muscles was estimated by weight difference and water recovery.
as §5

Test [4] has the same test system. The experiment in a line: Drip losses of the ilio-spinalis (longissimus dorsi) muscle. The following applies: for Drip loss by water recovery / Drip loss by weight difference: ilio-spinalis muscle, mean ± SD of 20 determinations; for Drip loss by water recovery: 24 h storage at +4° C. in plastic bags; for Drip loss by weight difference: 24 h storage at +4° C.; for Drip loss by water recovery, value in brackets relative to group A (100) / Drip loss by weight difference, value in brackets relative to group A (100): index. Here is the method: as §1, §2, §3, §4, §6, §5

Where [5] appears, read: dietary supplementation vs. vitamin D3 control group.

In the case of `C=C1CC[C@H](O)C/C1=C/C=C1\CCC[C@]2(C)[C@@H]([C@H](C)CCCC(C)(C)O)CC[C@@H]12` [25-OH D3, 25-hydroxycholecalciferol], the “effect on the lean/fat ratio of the carcasses (in words)” value in the test on growing-fattening pig [1] (setting [5]) is on record as “no positive effects”. In addition, in the test on growing-fattening pig [1], the “carcasses' lean/fat ratio, value in brackets relative to group A (100)” value is given as “(99)” and the “carcasses' lean/fat ratio” value was found to be 67.70 ± 2.99%. Further, the “effect on the cold yield of the carcasses (in words)” value in the test with growing-fattening pig [2] (setting [5]) is recorded as “no positive effects”. For the same compound, in the test with growing-fattening pig [2], the “carcasses' cold yield, value in brackets relative to group A (100)” value is “(99)” and the “carcasses' cold yield” value is 81.11 ± 1.71 % of live weight. In addition, in test [3] (ilio-spinalis muscle segments), the “pH values immediately after slaughter and after 24 hours storage compared to control group (in words)” value is given as “similar”. In test [3], the “pH after 24 h” value was found to be 5.51 ± 0.04; the pH at slaughter was determined as 5.89 ± 0.16; the “pH after 24 h, value in brackets relative to group A (100)” value is recorded as “(100)”; the “pH at slaughter, value in brackets relative to group A (100)” value is given as “(101)”. Also, in test [4], the “Drip loss by water recovery” value was determined as 0.45 ± 0.23%; the “Drip loss by weight difference” value was 1.51 ± 0.28%; the “Drip loss by water recovery, value in brackets relative to group A (100)” value was “(58)”; the “Drip loss by weight difference, value in brackets relative to group A (100)” value was “(78)”. Also, in test [4] (vs. control group), the “mass lost from muscular segments (in words)” value is given as “less mass was lost” and the “water volumes recovered from muscular segments (in words)” value was “clearly smaller water volumes were recovered”.

In the case of `C=C1CC[C@H](O)C/C1=C/C=C1\CCC[C@]2(C)[C@@H]([C@H](C)CCCC(C)C)CC[C@@H]12` [D3, vitamin D3], in the test with growing-fattening pig [1], the “carcasses' lean/fat ratio, value in brackets relative to group A (100)” value was “(100)” and the “carcasses' lean/fat ratio” value is given as 68.42 ± 2.26^(1) %. For the same compound, in the test with growing-fattening pig [2], the “carcasses' cold yield, value in brackets relative to group A (100)” value was “(100)” and the “carcasses' cold yield” value is given as 81.85 ± 0.76^(1) % of live weight. In addition, in test [3], the “pH after 24 h” value is given as 5.49 ± 0.05^(1); the pH at slaughter is 5.85 ± 0.21^(1); the “pH after 24 h, value in brackets relative to group A (100)” value is “(100)”; the “pH at slaughter, value in brackets relative to group A (100)” value is on record as “(100)”. Further, in test [4], the “Drip loss by water recovery” value is reported as 0.78 ± 0.74^(1) %; the “Drip loss by weight difference” value is given as 1.94 ± 0.85^(1) %; the “Drip loss by water recovery, value in brackets relative to group A (100)” value is reported as “(100)”; the “Drip loss by weight difference, value in brackets relative to group A (100)” value was “(100)”.
